From patent publication US20170252338A1, “MEDICINE” (KOWA COMPANY, LTD., priority 2014, published 2017)

Columns and labels:
[1] = Thermal stability test (residual ratio by HPLC after storage in glass bottles); type: physicochemical; details: for Residual ratio (%) After storage at 80° C. for 72 hours / Residual ratio (%) After storage at 100° C. for 24 hours / Residual ratio (%) After storage at 120° C. for 16 hours: glass bottles, HPLC area percentage
Experimental: A test compound was introduced into glass bottles, and the bottles were stored for certain time periods under temperature conditions of 80° C., 100° C., or 120° C. Subsequently, the residual ratio (%) of the pyrimidine compound (1) in the test compound was measured. Regarding the residual ratio, the proportion of the pyrimidine compound (1) contained in the test compound was measured as the peak area percentage using high performance liquid chromatography. In regard to the measurement by high performance liquid chromatography, an ODS column was used as a column, and a mixture of two kinds, namely, a 0.1% aqueous solution of TFA and a 0.1% acetonitrile solution of TFA, was used as a solvent. The detection wavelength was 242 nm. The residual ratio was calculated by the following calculation expression from the area percentage of the pyrimidine compound (1) thus obtained. Residual ratio (%)=Area percentage of pyrimidine compound (1) after storage/area percentage of pyrimidine compound (1) before storage×100 As the test compound, the crystals (crystals of pyrimidine compound (1) hydrochloride) obtained in Reference Example 1-3, and the free form of the pyrimidine compound (1) were used.

[2] = tested on: LDL cholesterol in blood plasma; assay: Evaluation of combined use of statin and CETP inhibitor: blood plasma LDL cholesterol after two weeks oral administration in guinea pigs; type: in vivo, guinea pigs (Slc: Hartley); details: for Amount of LDL cholesterol in blood plasma: male guinea pigs, average ± standard deviation; for Amount of LDL cholesterol in blood plasma / Plasma LDL cholesterol lowering ratio: oral, two weeks
Experimental: Male guinea pigs (six weeks old, Slc: Hartley, Japan SLC, Inc.) were used for the experiment. Blood was collected from the jugular vein, and the guinea pigs were grouped on the basis of the total plasma cholesterol level and body weight.
After completion of repeated administration, blood was collected under anesthesia with pentobarbital, and the amount of LDL cholesterol in blood plasma (mg/dl. Hereinafter, described as “amount of LDL cholesterol in blood plasma”) was measured using high performance liquid chromatography according to the method by Usui, et al. (Usui et al., Clin. Chem., 46, 63-72 (2000)).
The group configuration consisted of the following four items, and six guinea pigs were used for each group.
(2) Pitavastatin single administration group: Pitavastatin calcium pentahydrate was orally administered at a dose of 1 mg/kg of body weight.
The amount of LDL cholesterol in blood plasma was obtained as an average value ±standard deviation.
Furthermore, the proportions of lowering of LDL cholesterol in blood plasma in the various drug administration groups (“plasma LDL cholesterol lowering ratios”) were calculated by the expression described below, from the average values of the amounts of LDL cholesterol in blood plasma of the control group and the various drug administration groups.
Plasma LDL cholesterol lowering ratio (%)=[(Cc−Ct)/Cc]×100
wherein Cc represents the average value of the amount of LDL cholesterol in blood plasma in the control group; and Ct represents the average value of the amount of LDL cholesterol in blood plasma of each of the various drug administration groups.
Furthermore, the average values of the amounts of LDL cholesterol in blood plasma of each of the various drug administration groups in a case in which the average value of the amount of LDL cholesterol in blood plasma of the control group was designated as 1, were calculated as relative indices.
Furthermore, determination of a synergistic effect according to Bulge formula was implemented.

[3] = Test Example 1-2, control group designated as 1, pitavastatin 1 mg/kg, anacetrapib 30 mg/kg
[4] = Test Example 1-2, pitavastatin 1 mg/kg, anacetrapib 30 mg/kg, control 18.5 ± 4.8
[5] = Test Example 1-2, vs control group, pitavastatin 1 mg/kg, anacetrapib 30 mg/kg
[6] = Test Example 1-1, [(Cc−Ct)/Cc]×100 vs control group, pitavastatin 1 mg/kg, pyrimidine compound (1) 30 mg/kg
[7] = Test Example 1-1, average plasma LDL cholesterol with control group designated as 1, pitavastatin 1 mg/kg, pyrimidine compound (1) 30 mg/kg
[8] = Test Example 1-1, pitavastatin calcium pentahydrate 1 mg/kg, pyrimidine compound (1) monohydrochloride 30 mg/kg, six per group, control 22.4 ± 2.9

Compound	Residual ratio (%) After storage at 80° C. for 72 hours [1] [%]	Residual ratio (%) After storage at 100° C. for 24 hours [1] [%]	Residual ratio (%) After storage at 120° C. for 16 hours [1] [%]	Thermal stability ([1]; conclusion from Table 10)	Relative index [2, 3]	Amount of LDL cholesterol in blood plasma [2, 4] [mg/dL]	Plasma LDL cholesterol lowering ratio [2, 5] [%]	Plasma LDL cholesterol lowering ratio [2, 6] [%]	Relative index [2, 7]	Amount of LDL cholesterol in blood plasma [2, 8] [mg/dL]
CCN(C[C@H]1CC[C@H](CC(=O)O)CC1)c1ccc(C(F)(F)F)cc1CN(c1ncc(OCCS(C)(=O)=O)cn1)[C@@H](C)c1cc(C(F)(F)F)cc(C(F)(F)F)c1.Cl [(S)-trans-{4-[({2-[({1-[3,5-bis(trifluoromethyl)phenyl]ethyl}{5-[2-(methylsulfonyl)ethoxy]pyrimidin-2-yl}amino)methyl]-4-(trifluoromethyl)phenyl}(ethyl)amino)methyl]cyclohexyl}acetic acid hydrochloride]	100.0	100.0	99.5	excellent thermal stability						
COc1cc(F)c(C(C)C)cc1-c1ccc(C(F)(F)F)cc1CN1C(=O)O[C@H](c2cc(C(F)(F)F)cc(C(F)(F)F)c2)[C@@H]1C [Anacetrapib]					0.98	18.2 ± 4.1	2			
CCN(C[C@H]1CC[C@H](CC(=O)O)CC1)c1ccc(C(F)(F)F)cc1CN(c1ncc(OCCS(C)(=O)=O)cn1)[C@@H](C)c1cc(C(F)(F)F)cc(C(F)(F)F)c1 [Free form of pyrimidine compound (1), (S)-trans-{4-[({2-[({1-[3,5-bis(trifluoromethyl)phenyl]ethyl}{5-[2-(methylsulfonyl)ethoxy]pyrimidin-2-yl}amino)methyl]-4-(trifluoromethyl)phenyl}(ethyl)amino)methyl]cyclohexyl}acetic acid]	99.5	89.3	71.5							
O=C(O)C[C@H](O)C[C@H](O)/C=C/c1c(C2CC2)nc2ccccc2c1-c1ccc(F)cc1 [Pitavastatin, (+)-monocalcium is[(3R,5S,6E)-7-[2-cyclopropyl-4-(4-fluorophenyl)-3-quinolyl]-3,5-dihydroxy-6-heptenoate}]					0.62	11.5 ± 3.3	38	31	0.69	15.5 ± 3.9
CCN(C[C@H]1CC[C@H](CC(=O)O)CC1)c1ccc(C(F)(F)F)cc1CN(c1ncc(OCCS(C)(=O)=O)cn1)[C@@H](C)c1cc(C(F)(F)F)cc(C(F)(F)F)c1 [Pyrimidine compound (1), (S)-trans-{4-[({2-[({1-[3,5-bis(trifluoromethyl)phenyl]ethyl}{5-[2-(methylsulfonyl)ethoxy]pyrimidin-2-yl}amino)methyl]-4-(trifluoromethyl)phenyl}(ethyl)amino)methyl]cyclohexyl}acetic acid]								16	0.84	18.9 ± 3.8
